Assays:
CWR22RV1 cells [1] = test: Compound in combination with CDK4/6 inhibitor palbociclib on proliferation of CWR22RV1 cells; format: cell-based, human; conditions: Homo sapiens, CWR22Rv1, single agent; read-out: IC50 against the activity of CWR22RV1 cells
Experimental: The IC50 values (nM) of the compound according to the present invention, palbociclib, and the combination of the compound according to the present invention and palbociclib against CWR22RV1 cell proliferation were tested and calculated, and the detailed procedures were as follows:
(§1) 1) CWR22RV1 cells were subcultured in cell culture medium, and the cells in good growth condition were seeded in a 96-well plate, 60 μL for each well, and the cell number in each well was 2000. The plate was incubated overnight in a 37° C., 5% CO2 cell incubator. 2) The drug was prepared as 10 mM stock solution with dimethyl sulfoxide (DMSO). Prior to use, the stock solution was diluted 3 times with DMSO, and then further diluted as 3-fold gradient to obtain 9 concentration gradients. Then, each concentration of compound was diluted 200 times with the culture solution (ensuring that the DMSO concentration in the culture system was 0.1%), and two replicate wells were set for each concentration. 20 μL of diluted compound solution was added to the cell culture well (with final concentrations of 10 μM, 3.3 μM, 1.1 μM . . . ). Palbociclib was diluted with culture medium to 500 nM, 150 nM, 50 nM, 5 nM, and 20 μL diluted compound solution was added to the corresponding cell culture wells (with a final concentration of 100 nM, 30 nM, 10 nM, 1 nM). The plate was gently shaken to mix. In addition, 3 negative control wells containing only cells and 3 blank control wells containing only culture medium were included (6 wells were each added 20 μL DMSO diluted 200 times with culture medium).
(§2) (1) After culturing for 6 days, 10 μL CCK-8 was added to each well, and the plate was continually cultured in a 37° C., 5% CO2 cell incubator for 2.5 h. (2) The absorbance (OD value) was detected at 450 nm using a multifunctional microplate reader. (3) The data were analyzed by Dose-response-inhibition equation in the software GraphPad Prism6, and the IC50 value was obtained.

MCF-7 cells = test: Compound in combination with CDK4/6 inhibitor palbociclib against proliferation of MCF-7 cells; format: cell-based; conditions: Homo sapiens, MCF7, single agent
Experimental: as §1, §2
Using the same method as Experimental example 4, CWR22RV1 cells were replaced with MCF-7 cells, and the IC50 values (nM) of the compound according to the present invention, palbociclib, as well as the combination of the compound according to the present invention and palbociclib against the proliferation of MCF-7 cells w ere tested and calculated.

CWR22RV1 cells [2] = test: Inhibition of proliferation of CWR22RV1 cells (CCK-8); format: cell-based, human; conditions: Homo sapiens, CWR22Rv1, 144 h, 6 days culture
Outline: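 CWR22RV1 cells (1500/well) were exposed to 9 three-fold compound concentrations (top final 10 μM, 0.1% DMSO) for 6 days. CCK-8 was added for 2.5 h, and absorbance was read at 450 nm. IC50 was fitted with a dose-response-inhibition equation.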

VCAP = test: Inhibition of proliferation of VCAP cells; format: cell-based; conditions: Homo sapiens; Prostate cancer cell line VCAP; read-out: IC50 against VCAP
Experimental: (§3) 1) CWR22RV1 cells were subcultured in cell culture medium, and the cells in good growth condition were seeded in a 96-well plate, 80 μL for each well, and the cell number in each well was 1500. The plate was incubated overnight in a 37° C., 5% CO2 cell incubator. 2) The drug was prepared as 30 mM stock solution with dimethyl sulfoxide (DMSO). Prior to use, the stock solution was diluted 3 times with DMSO, and then further diluted as 3-fold gradient to obtain 9 concentration gradients. Then, each concentration of compound was diluted 200 times with the culture solution (ensuring that the DMSO concentration in the culture system was 0.1%), and two replicate wells were set for each concentration. 20 μL of diluted compound solution was added to the cell culture well (with final concentrations of 10 μM, 3.3 μM. 1.1 μM . . . ), and the plate was gently shaken to mix. In addition, 3 negative control wells containing only cells and 3 blank control wells containing only culture medium were included (6 wells were each added 20 μL DMSO diluted 200 times with culture medium). 2. Result detection: (1) After culturing for 6 days, 10 μL CCK-8 was added to each well, and the plate was continually cultured in a 37° C., 5% CO2 cell incubator for 2.5 h. (2) The absorbance (OD value) was detected at 450 nm using a multifunctional microplate reader. (3) The data were analyzed by Dose-response-inhibition equation in the software GraphPad Prism6, and the IC50 value was obtained.
(§4) Using the same method as Experimental example 2, CWR22RV1 cells were replaced with tumor cells in Table 3, and the IC50 (nM) of the compound according to the present invention against the activity of these tumor cells was tested and calculated.

LNCAP-AR = test: Inhibition of proliferation of LNCAP-AR cells; format: cell-based; conditions: Prostate cancer cell line LNCAP-AR; read-out: IC50 against LNCAP-AR
Experimental: as §3, §4

LNCAP = test: Inhibition of proliferation of LNCAP cells; format: cell-based; conditions: Homo sapiens; Prostate cancer cell line LNCAP; read-out: IC50 against LNCAP
Experimental: as §3, §4

MOLT-4 = test: Inhibition of proliferation of MOLT-4 cells; format: cell-based; conditions: Homo sapiens; Leukemia cell line MOLT-4; read-out: IC50 against MOLT-4
Experimental: as §3, §4

TALL-1 = test: Inhibition of proliferation of TALL-1 cells; format: cell-based; conditions: Homo sapiens; Leukemia cell line TALL-1; read-out: IC50 against TALL-1
Experimental: as §3, §4

HEL = test: Inhibition of proliferation of HEL cells; format: cell-based; conditions: Homo sapiens; Leukemia cell line HEL; read-out: IC50 against HEL
Experimental: as §3, §4

ATN-1 = test: Inhibition of proliferation of ATN-1 cells; format: cell-based; conditions: Homo sapiens; Leukemia cell line ATN-1; read-out: IC50 against ATN-1
Experimental: as §3, §4

MOLM-16 = test: Inhibition of proliferation of MOLM-16 cells; format: cell-based; conditions: MOLM16; Leukemia cell line MOLM-16; read-out: IC50 against MOLM-16
Experimental: as §3, §4

OCI-AML3 = test: Inhibition of proliferation of OCI-AML3 cells; format: cell-based; conditions: Homo sapiens, OCI-AML-3; Leukemia cell line OCI-AML3; read-out: IC50 against OCI-AML3
Experimental: as §3, §4

MT-2 = test: Inhibition of proliferation of MT-2 cells; format: cell-based; conditions: Homo sapiens, MT2; Leukemia cell line MT-2; read-out: IC50 against MT-2
Experimental: as §3, §4

Pfeiffer = test: Inhibition of proliferation of Pfeiffer cells; format: cell-based; conditions: Homo sapiens; Lymphoma cell line Pfeiffer; read-out: IC50 against Pfeiffer
Experimental: as §3, §4

KARPAS-422 = test: Inhibition of proliferation of KARPAS-422 cells; format: cell-based; conditions: Homo sapiens; Lymphoma cell line KARPAS-422; read-out: IC50 against KARPAS-422
Experimental: as §3, §4

Z-138 = test: Inhibition of proliferation of Z-138 cells; format: cell-based; conditions: Homo sapiens; Lymphoma cell line Z-138; read-out: IC50 against Z-138
Experimental: as §3, §4

RL = test: Inhibition of proliferation of RL cells; format: cell-based; conditions: Homo sapiens; Lymphoma cell line RL; read-out: IC50 against RL
Experimental: as §3, §4

MM.1R = test: Inhibition of proliferation of MM.1R cells; format: cell-based; conditions: Lymphoma cell line MM.1R; read-out: IC50 against MM.1R
Experimental: as §3, §4

MLMA = test: Inhibition of proliferation of MLMA cells; format: cell-based; conditions: Lymphoma cell line MLMA; read-out: IC50 against MLMA
Experimental: as §3, §4

MAVER-1 = test: Inhibition of proliferation of MAVER-1 cells; format: cell-based; conditions: Homo sapiens, Maver1; Lymphoma cell line MAVER-1; read-out: IC50 against MAVER-1
Experimental: as §3, §4

KMS-12-PE = test: Inhibition of proliferation of KMS-12-PE cells; format: cell-based; conditions: Homo sapiens; Lymphoma cell line KMS-12-PE; read-out: IC50 against KMS-12-PE
Experimental: as §3, §4

MDA-MB-453 = test: Inhibition of proliferation of MDA-MB-453 cells; format: cell-based; conditions: Homo sapiens; Breast cancer cell line MDA-MB-453; read-out: IC50 against MDA-MB-453
Experimental: as §3, §4

MCF-7 = test: Inhibition of proliferation of MCF-7 cells; format: cell-based; conditions: Homo sapiens, MCF7; Breast cancer cell line MCF-7; read-out: IC50 against MCF-7
Experimental: as §3, §4

BT-474 = test: Inhibition of proliferation of BT-474 cells; format: cell-based; conditions: Homo sapiens; Breast cancer cell line BT-474; read-out: IC50 against BT-474
Experimental: as §3, §4

DU4475 = test: Inhibition of proliferation of DU4475 cells; format: cell-based; conditions: Homo sapiens, DU-4475; Breast cancer cell line DU4475; read-out: IC50 against DU4475
Experimental: as §3, §4

HCC1428 = test: Inhibition of proliferation of HCC1428 cells; format: cell-based; conditions: Homo sapiens; Breast cancer cell line HCC1428; read-out: IC50 against HCC1428
Experimental: as §3, §4

EVSA-T = test: Inhibition of proliferation of EVSA-T cells; format: cell-based; conditions: Homo sapiens; Breast cancer cell line EVSA-T; read-out: IC50 against EVSA-T
Experimental: as §3, §4

KMS-20 = test: Inhibition of proliferation of KMS-20 cells; format: cell-based; conditions: Multiple myeloma cell line KMS-20; read-out: IC50 against KMS-20
Experimental: as §3, §4

KMS-11 = test: Inhibition of proliferation of KMS-11 cells; format: cell-based; conditions: Homo sapiens; Multiple myeloma cell line KMS-11; read-out: IC50 against KMS-11
Experimental: as §3, §4

MM.1S = test: Inhibition of proliferation of MM.1S cells; format: cell-based; conditions: Homo sapiens, MM1.S; Multiple myeloma cell line MM.1S; read-out: IC50 against MM.1S
Experimental: as §3, §4

NCI-H929 = test: Inhibition of proliferation of NCI-H929 cells; format: cell-based; conditions: Homo sapiens; Multiple myeloma cell line NCI-H929; read-out: IC50 against NCI-H929
Experimental: as §3, §4

OPM-2 = test: Inhibition of proliferation of OPM-2 cells; format: cell-based; conditions: Homo sapiens; Multiple myeloma cell line OPM-2; read-out: IC50 against OPM-2
Experimental: as §3, §4

SMILES: CC(=O)c1c(C)c2cnc(Nc3ccc(N4CCNCC4)cn3)nc2n(C2CCCC2)c1=O [palbociclib, reference compound]
- IC50 (CWR22RV1 cells [1]): 66 nM
- IC50 (MCF-7 cells): 34 nM

SMILES: CNC(=O)Nc1cc2c(cc1F)[C@@]1(CC2)OC(=O)N(CC(=O)N2[C@@H](C)CC[C@H]2c2cc(F)c(F)c(F)c2)C1=O [Example 390, 1-((R)-6-fluoro-3′-(2-((2S,5S)-2-methyl-5-(3,4,5-trifluorophenyl)pyrrolidin-1-yl)-2-oxoethyl)-2′,4′-dioxo-2,3-dihydrospiro[indene-1,5′-oxazolidine]-5-yl)-3-methylurea]
- IC50 (CWR22RV1 cells [2]; read-out: IC50 against CWR22RV1 cells): ≤ 500 nM
- IC50 (CWR22RV1 cells [2]; read-out: IC50 against CWR22RV1 cells (text)): ≤ 500 nM
- IC50 (VCAP): ≤ 500 nM
- IC50 (LNCAP-AR): ≤ 500 nM
- IC50 (LNCAP): ≤ 500 nM
- IC50 (MOLT-4): ≤ 500 nM
- IC50 (TALL-1): ≤ 500 nM
- IC50 (HEL): ≤ 500 nM
- IC50 (ATN-1): ≤ 500 nM
- IC50 (MOLM-16): ≤ 500 nM
- IC50 (OCI-AML3): ≤ 500 nM
- IC50 (MT-2): 500 to 2000 nM
- IC50 (Pfeiffer): ≤ 500 nM
- IC50 (KARPAS-422): ≤ 500 nM
- IC50 (Z-138): ≤ 500 nM
- IC50 (RL): ≤ 500 nM
- IC50 (MM.1R): 500 to 2000 nM
- IC50 (MLMA): ≤ 500 nM
- IC50 (MAVER-1): ≤ 500 nM
- IC50 (KMS-12-PE): 500 to 2000 nM
- IC50 (MDA-MB-453): ≤ 500 nM
- IC50 (MCF-7): ≤ 500 nM
- IC50 (BT-474): ≤ 500 nM
- IC50 (DU4475): 500 to 2000 nM
- IC50 (HCC1428): ≤ 500 nM
- IC50 (EVSA-T): 500 to 2000 nM
- IC50 (KMS-20): ≤ 500 nM
- IC50 (KMS-11): ≤ 500 nM
- IC50 (MM.1S): 500 to 2000 nM
- IC50 (NCI-H929): ≤ 500 nM
- IC50 (OPM-2): ≤ 500 nM

— patent US20220087996A1, “Histone acetylase p300 inhibitor and use thereof” (HINOVA PHARMACEUTICALS INC., priority 2018, published 2022)
